Experimental data: ChEMBL document CHEMBL1201862, “PubChem BioAssay data set” (2004)
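Five concentrations, 48 hours, 96-well plates. The concentration for 50% growth inhibition is given as GI50.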 Active and inactive are the calls of the source. Rule as the data show it: active = GI50 up to about 1.1 µM and inactive = higher.

Key:
Assay in all cases: NCI-60 cell line screen, 48 h
[1] = system: 786-0
[2] = system: A498
[3] = system: A549
[4] = system: ACHN
[5] = system: CAKI-1
[6] = system: COLO 205
[7] = system: DLD-1
[8] = system: DMS-114
[9] = system: DMS-273
[10] = system: EKVX
[11] = system: HCC 2998
[12] = system: HCT-116
[13] = system: HL-60
[14] = system: HOP-18
[15] = system: HOP-62
[16] = system: HOP-92
[17] = system: HT-29
[18] = system: IGROV-1
[19] = system: K562
[20] = system: KM-20L2
[21] = system: KM12
[22] = system: LOX IMVI
[23] = system: LXFL 529
[24] = system: M14
[25] = system: M19-MEL
[26] = system: MOLT-4
[27] = system: Malme-3M
[28] = system: NCI-H226
[29] = system: NCI-H23
[30] = system: NCI-H460
[31] = system: NCI-H522
[32] = system: OVCAR-3
[33] = system: OVCAR-4
[34] = system: OVCAR-5
[35] = system: OVCAR-8
[36] = system: RPMI-8226
[37] = system: RXF 393
[38] = system: RXF 631
[39] = system: SF-268
[40] = system: SF-295
[41] = system: SF-539
[42] = system: SK-MEL-28
[43] = system: SK-MEL-2
[44] = system: SK-OV-3
[45] = system: SN12C
[46] = system: SNB-19
[47] = system: SNB-75
[48] = system: SNB-78
[49] = system: SW-620
[50] = system: TK-10
[51] = system: U-251
[52] = system: UACC-257
[53] = system: UACC-62
[54] = system: UO-31
[55] = system: XF498
[56] = system: CCRF-CEM
[57] = system: HCT-15
[58] = system: SK-MEL-5
[59] = system: MCF7
[60] = system: SR

C=CCCCCCCCCC(=O)NS(=O)(=O)c1ccccc1
GI50 [1]: > 100 µM (inactive)
GI50 [2]: > 100 µM (inactive)
GI50 [3]: 57.7 µM (inactive)
GI50 [4]: 71 µM (inactive)
GI50 [5]: > 100 µM (inactive)
GI50 [6]: > 100 µM (inactive)
GI50 [7]: 96.6 µM (inactive)
GI50 [8]: > 100 µM (inactive)
GI50 [9]: 88.1 µM (inactive)
GI50 [10]: > 100 µM (inactive)
GI50 [11]: > 100 µM (inactive)
GI50 [12]: 93.8 µM (inactive)
GI50 [13]: 44.7 µM (inactive)
GI50 [14]: 40.9 µM (inactive)
GI50 [15]: > 100 µM (inactive)
GI50 [16]: 56.9 µM (inactive)
GI50 [17]: > 100 µM (inactive)
GI50 [18]: > 100 µM (inactive)
GI50 [19]: 54.5 µM (inactive)
GI50 [20]: > 100 µM (inactive)
GI50 [21]: 73.6 µM (inactive)
GI50 [22]: > 100 µM (inactive)
GI50 [23]: > 100 µM (inactive)
GI50 [24]: > 100 µM (inactive)
GI50 [25]: > 100 µM (inactive)
GI50 [26]: 48.6 µM (inactive)
GI50 [27]: > 100 µM (inactive)
GI50 [28]: > 100 µM (inactive)
GI50 [29]: > 100 µM (inactive)
GI50 [30]: > 100 µM (inactive)
GI50 [31]: 55.3 µM (inactive)
GI50 [32]: > 100 µM (inactive)
GI50 [33]: > 100 µM (inactive)
GI50 [34]: > 100 µM (inactive)
GI50 [35]: > 100 µM (inactive)
GI50 [36]: 35.8 µM (inactive)
GI50 [37]: > 100 µM (inactive)
GI50 [38]: > 100 µM (inactive)
GI50 [39]: > 100 µM (inactive)
GI50 [40]: > 100 µM (inactive)
GI50 [41]: > 100 µM (inactive)
GI50 [42]: 99.3 µM (inactive)
GI50 [43]: > 100 µM (inactive)
GI50 [44]: > 100 µM (inactive)
GI50 [45]: > 100 µM (inactive)
GI50 [46]: > 100 µM (inactive)
GI50 [47]: 92.5 µM (inactive)
GI50 [48]: > 100 µM (inactive)
GI50 [49]: > 100 µM (inactive)
GI50 [50]: > 100 µM (inactive)
GI50 [51]: 77.4 µM (inactive)
GI50 [52]: > 100 µM (inactive)
GI50 [53]: 53.2 µM (inactive)
GI50 [54]: 30.7 µM (inactive)
GI50 [55]: > 100 µM (inactive)

CCCCCCCCCCCCCC(=O)OCC1OC(=O)CC1O (stereo not drawn)
GI50 [1]: > 100 µM (inactive)
GI50 [2]: > 100 µM (inactive)
GI50 [3]: > 100 µM (inactive)
GI50 [4]: > 100 µM (inactive)
GI50 [5]: 43 µM (inactive)
GI50 [56]: 42 µM (inactive)
GI50 [6]: > 100 µM (inactive)
GI50 [7]: 34.8 µM (inactive)
GI50 [8]: 49.4 µM (inactive)
GI50 [9]: > 100 µM (inactive)
GI50 [10]: > 100 µM (inactive)
GI50 [11]: > 100 µM (inactive)
GI50 [12]: 44.2 µM (inactive)
GI50 [57]: 25.4 µM
GI50 [13]: 43 µM (inactive)
GI50 [14]: 0.437 µM (active)
GI50 [15]: > 100 µM (inactive)
GI50 [16]: 7.36 µM (inactive)
GI50 [17]: 94.4 µM (inactive)
GI50 [18]: 88.5 µM (inactive)
GI50 [19]: 24.9 µM (inactive)
GI50 [20]: > 100 µM (inactive)
GI50 [21]: 81.5 µM (inactive)
GI50 [22]: 51.5 µM (inactive)
GI50 [23]: > 100 µM (inactive)
GI50 [24]: 21.9 µM (inactive)
GI50 [26]: 35.2 µM (inactive)
GI50 [27]: > 100 µM (inactive)
GI50 [29]: > 100 µM (inactive)
GI50 [30]: > 100 µM (inactive)
GI50 [32]: > 100 µM (inactive)
GI50 [33]: > 100 µM (inactive)
GI50 [34]: > 100 µM (inactive)
GI50 [35]: > 100 µM (inactive)
GI50 [36]: 49.8 µM (inactive)
GI50 [37]: > 100 µM (inactive)
GI50 [38]: > 100 µM (inactive)
GI50 [39]: > 100 µM (inactive)
GI50 [40]: 35.2 µM (inactive)
GI50 [41]: > 100 µM (inactive)
GI50 [43]: > 100 µM (inactive)
GI50 [58]: > 100 µM (inactive)
GI50 [44]: > 100 µM (inactive)
GI50 [45]: > 100 µM (inactive)
GI50 [46]: > 100 µM (inactive)
GI50 [47]: > 100 µM (inactive)
GI50 [48]: 56.1 µM (inactive)
GI50 [49]: > 100 µM (inactive)
GI50 [50]: > 100 µM (inactive)
GI50 [51]: > 100 µM (inactive)
GI50 [52]: > 100 µM (inactive)
GI50 [53]: 94 µM (inactive)
GI50 [54]: 20.2 µM (inactive)
GI50 [55]: > 100 µM (inactive)

COc1cccc2c1C(=O)c1c(O)c3c(c(O)c1C2=O)C[C@@](O)(C(C)O)C[C@@H]3OC1CC(N)C(O)C(C)O1 (stereo partly drawn)
GI50 [1]: 0.644 µM (active)
GI50 [2]: 2.18 µM (inactive)
GI50 [3]: 0.946 µM (active)
GI50 [4]: 1.51 µM (inactive)
GI50 [5]: 0.408 µM (active)
GI50 [56]: 0.148 µM (active)
GI50 [6]: 1.41 µM (inactive)
GI50 [7]: 2.99 µM (inactive)
GI50 [8]: 0.163 µM (active)
GI50 [9]: 0.569 µM (active)
GI50 [10]: 1.18 µM (inactive)
GI50 [11]: 1.68 µM (inactive)
GI50 [12]: 0.805 µM (active)
GI50 [57]: 8.28 µM
GI50 [13]: 0.171 µM (active)
GI50 [14]: 0.00497 µM (active)
GI50 [15]: 0.861 µM (active)
GI50 [16]: 0.502 µM (active)
GI50 [17]: 2.21 µM (inactive)
GI50 [18]: 2.2 µM (inactive)
GI50 [19]: 1.12 µM (active)
GI50 [20]: 3.24 µM (inactive)
GI50 [21]: 2.24 µM (inactive)
GI50 [22]: 0.524 µM (active)
GI50 [23]: 1.02 µM (active)
GI50 [24]: 3.02 µM (inactive)
GI50 [25]: 1.16 µM (inactive)
GI50 [59]: 0.738 µM (active)
GI50 [26]: 0.105 µM (active)
GI50 [27]: 0.491 µM (active)
GI50 [28]: 0.607 µM (active)
GI50 [29]: 0.553 µM (active)
GI50 [30]: 0.329 µM (active)
GI50 [31]: 0.57 µM (active)
GI50 [32]: 2.4 µM (inactive)
GI50 [33]: 4.99 µM (inactive)
GI50 [34]: 3.3 µM (inactive)
GI50 [35]: 1.14 µM (inactive)
GI50 [37]: 1.47 µM (inactive)
GI50 [38]: 2 µM (inactive)
GI50 [39]: 1.05 µM (active)
GI50 [40]: 1.26 µM (inactive)
GI50 [41]: 0.869 µM (active)
GI50 [42]: 1.42 µM (inactive)
GI50 [43]: 1.41 µM (inactive)
GI50 [58]: 0.834 µM (active)
GI50 [44]: 2.72 µM (inactive)
GI50 [45]: 0.993 µM (active)
GI50 [46]: 0.883 µM (active)
GI50 [47]: 0.00982 µM (active)
GI50 [48]: 1.88 µM (inactive)
GI50 [60]: 0.16 µM (active)
GI50 [49]: 1.05 µM (active)
GI50 [50]: 2.5 µM (inactive)
GI50 [51]: 0.885 µM (active)
GI50 [52]: 1.42 µM (inactive)
GI50 [53]: 1.34 µM (inactive)
GI50 [54]: 38.5 µM (inactive)
GI50 [55]: 0.614 µM (active)
